For assay [1], the target named is HLA-A*0201 molecule of T2 cells (Homo sapiens, UniProt P04439, D140Y/D185E/D98H/E176V/E277Q/G131W/G231S/I119V/I121R/I166T/I218V/L300P/L318F/N151K/N90K/P208A/P217A/Q86G/Q94H/R138H/R169H/T345S). Briefly: MHC-peptide complex stabilization assay on T2 cells. The arrangement: key: FI = (MFI sample − MFI background) / MFI background. The assay is classed as binding. The conditions noted are these: serum-free RPMI 1640, 1 h 37°C, 12 h 26°C, 3 h 37°C, FITC anti-HLA-A*0201, flow cytometry, FI = (MFI sample - MFI background)/MFI background. On the procedure: Figure 1 The affinity of candidate epitopes for HLA-A*0201 molecules. T2 cells were incubated in RPMI 1640 medium lacking peptides (red) or containing low peptide (1 μg/ml) (green) or intermediate peptide (10 μg/ml) (purple) or high peptide (100 μg/ml) (blue) for 15 h and stained with FITC-conjugated anti-HLA-A*0201 antibody. Then, mean fluorescence intensity (MFI) was measured using flow cytometry.
The ability of peptides to stabilize MHC molecules on the surface of T2 cells was measured as described previously. T2 cells (2 × 10^5 cells/0.5 ml) were incubated in serum-free RPMI 1640 medium in the presence of different concentrations of peptide (1, 10, 100 μg/ml) for 1 h at 37°C/5% CO2 incubator. Cells were then incubated at 26°C for 12 h, and then returned to 37°C for a 3 h incubation. Finally, T2 cells were stained with FITC-conjugated anti-HLA-A*0201 antibody (BD Pharmingen, USA) for 40 min at 4°C. T2 cells incubated in serum-free RPMI 1640 medium without peptides served as a negative control (background). Mean fluorescence intensity (MFI) of T2 cells was recorded with a FACS Calibur flow cytometer (BD bioscience, USA), and results expressed as fluorescence index (FI). The following formula was used to calculate the FI.
(1) FI=MFI sample-MFI background/MFI background
For orientation: Flow cytometry measures light scatter and fluorescence of single cells or particles in a stream.

Assay [2] has as its system HLA-A*0201 transgenic mice. Briefly: IFN-γ ELISPOT assay on splenocytes of peptide-immunized mice. It counts as in vivo. The conditions noted are these: mice immunized s.c. with peptide 50 μg/mouse in Freund's adjuvant, 5 weekly doses, splenocytes stimulated with cognate peptide 10 μg/ml, 24 h, background subtracted, mean ± SD, 4 mice/group. On the procedure:
(§1) HLA-A*0201 transgenic mice were subdivided into 12 groups (4 mice/group). Mice were inoculated subcutaneously with high-affinity peptide (50 μg/mouse) emulsified in Freund’s complete adjuvant. One week later, mice were immunized with the same peptide emulsified in Freund’s incomplete adjuvant. Mice were boosted three more times at weekly intervals. Mock-immunized (adjuvant alone) HLA-A*0201 transgenic mice and peptide-immunized C57BL/6 mice served as controls. One week after the final immunization, all mice were sacrificed and splenocytes extracted. ELISPOT and ICS assays were conducted to detect the frequencies of peptide-specific IFN-γ-producing cells. All animal were performed following the Institutional Animal Care and Use Committee-approved protocols.
Splenocytes were resuspended to a final concentration of 1 × 10^6 cells/ml in RPMI 1640 medium supplemented with 10% fetal bovine serum (FBS). ELISPOT assays were performed in pre-coated 96-well plates (U-CyTech Company, Netherlands). Splenocytes were seeded at 1 × 10^5 cells/well and exposed to either cognate or heterologous peptide at a final concentration of 10 μg/ml. Negative control wells contained splenocytes but no peptide. Positive control wells included cells plus phytohemagglutinin (PHA) at a final concentration of 10 μg/ml. All tests were carried out in duplicate wells, with plates incubated for 24 h at 37°C/5% CO2. Plates were washed and then incubated with biotinylated anti-mouse IFN-γ for 1 h at 37°C. After washing, plates were labeled with streptavidin-horseradish peroxidase, and developed using fresh ACE solution as a substrate. IFN-γ spots were counted using an ELISPOT reader (Beijing SageCreation Science Co. Ltd, Beijing, China). Peptide-specific T-cell frequency was expressed as SFCs/1 × 10^5 splenocytes. Background spots (negative control wells) were subtracted from test wells. A positive response to a peptide was defined as having > 5 SFCs/1 × 10^5 splenocytes after subtraction of the background.

Assay [3] deals with HLA-A*0201 transgenic mice. As to the kind of experiment: ICS assay for CD8+ IFN-γ+ T cells in splenocytes of peptide-immunized mice. It counts as in vivo, mouse. The conditions noted are these: mice immunized s.c. with peptide 50 μg/mouse in Freund's adjuvant, 5 weekly doses; splenocytes stimulated with cognate peptide 10 μg/ml, 6 h, brefeldin A; CD3+CD8+ gate; mean ± SD, 4 mice/group; SD. Here is the method: as §1
Splenocytes were cultured with either cognate peptide (10 μg/ml) or heterologous peptide (10 μg/ml) in a 1.5 ml microcentrifuge tube for 6 h at 37°C/5% CO2. […] During the last 5 h, brefeldin A (10 μg/ml) was added to each tube. After a 6 h incubation, cells were washed and then stained with APC-conjugated anti-mouse CD3 and FITC-conjugated anti-mouse CD8 antibodies (eBioscience company, USA) for 40 min at 4°C. Cells were then washed and fixed with 4% paraformaldehyde for 20 min at 4°C, permeabilized using 0.5% saponin for 10 min at 4 °C, and stained with PE-conjugated anti-mouse IFN-γ antibody (eBioscience company, USA) for 40 min at 4°C. A FACS Calibur flow cytometer (BD Bioscience, USA) was used to analyze labeled cells. CD3^+ CD8^+ T cells were gated and the proportion of IFN-γ-producing CD8^+ T cells (CD8^+ IFN-γ^+ T cells) as a subset of all CD8^+ T cells were determined.

For “QLAVTIMAI [D2V-NS2a144-152, D2V variant peptide of D1V-NS2a144-152, nonapeptide …]”, the “FI (fluorescence index)” value is 0.24 in assay [1] (peptide 1 μg (1 μg/ml)); 0.39 in assay [1] (peptide 10 μg (10 μg/ml)); 3.85 in assay [1] (peptide 100 μg (100 μg/ml)); greater than 1 in assay [1] (peptide 100 μg (100 μg/ml), listed as D2V-NS2a144–152). Also, the “ELISPOT IFN-γ spot-forming cells” value in assay [2] is on record as 21±3 SFCs/1×10^5cells. Further, the “ICS CD8^+IFN-γ^+T cells, proportion in CD8^+ T cells” value in assay [3] came to 0.21 ± 0.05%.
As to “QVGTLALSL [D4V-NS2a143-151, D4V variant peptide of D1V-NS2a144-152, nonapeptide …]”, the results for the “FI (fluorescence index)” value in assay [1] (peptide 1 μg (1 μg/ml)), in assay [1] (peptide 10 μg (10 μg/ml)) and in assay [1] (peptide 100 μg (100 μg/ml)) were 0.22, 0.2 and 0.8, respectively. For the same sequence, the “ELISPOT IFN-γ spot-forming cells” value in assay [2] is 12 ± 3 SFCs/1×10^5cells. For the same sequence, in assay [3], the “ICS CD8^+IFN-γ^+T cells, proportion in CD8^+ T cells” value is reported as 0.13 ± 0.06%.
The like results for “TILTIIGLI [D4V-NS4a140-148, D4V variant peptide of D1V-NS4a140-148, nonapeptide …]” were, in that order, 0.15, 0.3, 1.08, 17 ± 5 SFCs/1×10^5cells and 0.21 ± 0.05%.

Values taken from PMC3546861, “HLA-A*0201-restricted CD8^+ T-cell epitopes identified in dengue viruses” (Virology Journal, 2012).
